Laboratory results published in publication PMC11571207, “Stereorandomized Oncocins with Preserved Ribosome Binding and Antibacterial Activity” (Journal of Medicinal Chemistry, 2024).
Values after ≈ are worked out from the molar mass of the structure shown. Non-standard residues stand in square brackets, D forms with d. Residues, ends and D or L forms follow the SMILES beside them. No end group written: not given here.

What was measured:
[1] = test system: S. aureus COL (MRSA); assay: microbe, parasite or virus in culture; settings: for MIC S. aureus, 12.5% MHB / MIC S. aureus, Full MHB: S. aureus COL (MRSA), 16–20 h at 37 °C; for MIC S. aureus, 12.5% MHB: 12.5% Müller–Hinton medium; for MIC S. aureus, Full MHB: full Müller–Hinton medium; for MIC S. aureus COL (MRSA): supplement CSV
Procedure, shortened: (§1)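 Read-out was visible growth after MTT addition, the MIC being the lowest inhibitory peptide concentration. Bacteria grown to log phase in LB were exposed in MH medium to peptide from 64 μg/mL in twofold dilutions for 15-18h at 37°C.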

[2] = test system: E. coli W3110; assay: microbe, parasite or virus in culture; settings: for MIC E. coli, 12.5% MHB / MIC E. coli, Full MHB: E. coli W3110, 16–20 h at 37 °C, broth microdilution; for MIC E. coli, 12.5% MHB: 12.5% Müller–Hinton medium; for MIC E. coli, Full MHB: full Müller–Hinton medium; for MIC E. coli W3110: supplement CSV
Procedure, shortened: as §1

[3] = test system: K. pneumoniae NCTC 418; assay: microbe, parasite or virus in culture; settings: for MIC K. pneumoniae, 12.5% MHB / MIC K. pneumoniae, Full MHB: K. pneumoniae NCTC 418, 16–20 h at 37 °C; for MIC K. pneumoniae, 12.5% MHB: 12.5% Müller–Hinton medium; for MIC K. pneumoniae, Full MHB: full Müller–Hinton medium; for MIC K. pneumoniae NCTC418: supplement CSV
Procedure, shortened: as §1

[4] = test system: P. aeruginosa PAO1; assay: microbe, parasite or virus in culture; settings: for MIC P. aeruginosa, 12.5% MHB / MIC P. aeruginosa, Full MHB: P. aeruginosa PAO1, 16–20 h at 37 °C; for MIC P. aeruginosa, 12.5% MHB: 12.5% Müller–Hinton medium; for MIC P. aeruginosa, Full MHB: full Müller–Hinton medium; for MIC P. aeruginosa PAO1: supplement CSV
Procedure, shortened: as §1

[5] = test system: A. baumannii ATCC19606; assay: microbe, parasite or virus in culture; settings: for MIC A. baumannii, 12.5% MHB / MIC A. baumannii, Full MHB: A. baumannii ATCC19606, 16–20 h at 37 °C; for MIC A. baumannii, 12.5% MHB: 12.5% Müller–Hinton medium; for MIC A. baumannii, Full MHB: full Müller–Hinton medium; for MIC A. baumannii ATCC19606: supplement CSV
Procedure, shortened: as §1

[6] = test system: human red blood cells; assay: Hemolysis assay, minimum hemolytic concentration; settings: for Haemolysis on hRBC, MHC: 2.5% human red blood cells (final) in 10 mM phosphate, 150 mM NaCl, pH 7.4, 25 °C, 4 h, visual inspection; for MHC human red blood cells: supplement CSV

Row | Molecule | MIC S. aureus, 12.5% MHB [1] | MIC S. aureus, Full MHB [1] | MIC S. aureus COL (MRSA) ([1]; 12.5% MH pH 7.4) | MIC S. aureus COL (MRSA) ([1]; full MH pH 7.4) | MIC E. coli, 12.5% MHB [2] | MIC E. coli, Full MHB [2] | MIC E. coli W3110 ([2]; 12.5% MH pH 7.4) | MIC E. coli W3110 ([2]; full MH pH 7.4) | MIC K. pneumoniae, 12.5% MHB [3] | MIC K. pneumoniae, Full MHB [3] | MIC K. pneumoniae NCTC418 ([3]; 12.5% MH pH 7.4) | MIC K. pneumoniae NCTC418 ([3]; full MH pH 7.4) | MIC P. aeruginosa, 12.5% MHB [4] | MIC P. aeruginosa, Full MHB [4] | MIC P. aeruginosa PAO1 ([4]; 12.5% MH pH 7.4) | MIC P. aeruginosa PAO1 ([4]; full MH pH 7.4) | MIC A. baumannii, 12.5% MHB [5] | MIC A. baumannii, Full MHB [5] | MIC A. baumannii ATCC19606 ([5]; 12.5% MH pH 7.4) | MIC A. baumannii ATCC19606 ([5]; full MH pH 7.4) | further results
1 | VDKPPYLPRPRPPRRIYNR [srP45-Onc] (VDKPPYLPRPRPPRRIYNR-NH2; also: residues 4-5 (Pro-Pro) stereorandomized (1:1 L/D mixture)) | >64 / 64 μg/mL | >64 / 64 μg/mL | 64 µg/mL | >64 µg/mL | 4 µg/mL | 16 µg/mL | 4 µg/mL | 16 µg/mL | 8 µg/mL | 16 µg/mL | 8 µg/mL | 16 µg/mL | > 16 µg/mL | > 64 µg/mL | >16 µg/mL | >64 µg/mL | 8 µg/mL | 64 µg/mL | 8 µg/mL | 64 µg/mL | Haemolysis on hRBC, MHC [6]: >1000 µg/mL; MHC human red blood cells [6]: >1000 µg/mL
2 | CC[C@@H](C)[C@@H](NC(=O)[C@@H](CCCNC(=N)N)NC(=O)[C@@H](CCCNC(=N)N)NC(=O)[C@H]1CCCN1C(=O)[C@H]1CCCN1C(=O)[C@@H](CCCNC(=N)N)NC(=O)[C@@H]1CCCN1C(=O)[C@H](CCCNC(=N)N)NC(=O)[C@@H]1CCCN1C(=O)[C@H](CC(C)C)NC(=O)[C@H](Cc1ccc(O)cc1)NC(=O)[C@@H]1CCCN1C(=O)[C@@H]1CCCN1C(=O)[C@H](CCCCN)NC(=O)[C@H](CC(=O)O)NC(=O)[C@@H](N)C(C)C)C(=O)N[C@H](Cc1ccc(O)cc1)C(=O)N[C@H](CC(N)=O)C(=O)N[C@H](CCCNC(=N)N)C(N)=O [D9Cterm-Onc] (H-VDKPPYLPRP[dR][dP][dP][dR][dR][dI][dY][dN][dR]-NH2) | >64 / >64 μg/mL | >64 / >64 μg/mL | >64 µg/mL | >64 µg/mL | 2 µg/mL (≈ 0.837 µM) | 4 µg/mL (≈ 1.67 µM) | 2 µg/mL (≈ 0.837 µM) | 4 µg/mL (≈ 1.67 µM) | 2 µg/mL (≈ 0.837 µM) | 4 µg/mL (≈ 1.67 µM) | 2 µg/mL (≈ 0.837 µM) | 4 µg/mL (≈ 1.67 µM) | 4 µg/mL (≈ 1.67 µM) | 64 µg/mL (≈ 26.8 µM) | 4 µg/mL (≈ 1.67 µM) | 64 µg/mL (≈ 26.8 µM) | 4 µg/mL (≈ 1.67 µM) | 16 µg/mL (≈ 6.69 µM) | 4 µg/mL (≈ 1.67 µM) | 16 µg/mL (≈ 6.69 µM) | Haemolysis on hRBC, MHC [6]: >1000 µg/mL; MHC human red blood cells [6]: >1000 µg/mL
3 | VDKPPYLPRPRPPRRIYNR [sr3Nterm-Onc] (VDKPPYLPRPRPPRRIYNR-NH2; also: residues 1-3 stereorandomized (1:1 L/D mixture)) | >64 / 64 μg/mL | >64 / 64 μg/mL | 64 µg/mL | >64 µg/mL | 2 µg/mL | 16 µg/mL | 2 µg/mL | 16 µg/mL | 2 µg/mL | 16 µg/mL | 2 µg/mL | 16 µg/mL | 16 µg/mL | > 64 µg/mL | 16 µg/mL | >64 µg/mL | 8 µg/mL | 64 µg/mL | 8 µg/mL | 64 µg/mL | Haemolysis on hRBC, MHC [6]: >1000 µg/mL; MHC human red blood cells [6]: >1000 µg/mL
4 | VDKPPYLPRPRPPRRIYNR [sr7Cterm-Onc] (VDKPPYLPRPRPPRRIYNR-NH2; also: residues 13-19 stereorandomized (1:1 L/D mixture)) | > 16 µg/mL | > 64 µg/mL | >16 µg/mL | >64 µg/mL | 1 µg/mL | 8 µg/mL | 1 µg/mL | 8 µg/mL | 1 µg/mL | 4 µg/mL | 1 µg/mL | 4 µg/mL | 4 µg/mL | 64 µg/mL | 4 µg/mL | 64 µg/mL | 4 µg/mL | 32 µg/mL | 4 µg/mL | 32 µg/mL | Haemolysis on hRBC, MHC [6]: >1000 µg/mL; MHC human red blood cells [6]: >1000 µg/mL
5 | VDKPPYLPRPRPPRRIYNR [sr10Cterm-Onc] (VDKPPYLPRPRPPRRIYNR-NH2; also: residues 10-19 stereorandomized (1:1 L/D mixture)) | 32 µg/mL | > 64 µg/mL | 32 µg/mL | >64 µg/mL | 4 µg/mL | 16 µg/mL | 4 µg/mL | 16 µg/mL | 4 µg/mL | 8 µg/mL | 4 µg/mL | 8 µg/mL | 8 µg/mL | 64 µg/mL | 8 µg/mL | 64 µg/mL | 4 µg/mL | 64 µg/mL | 4 µg/mL | 64 µg/mL | Haemolysis on hRBC, MHC [6]: >1000 µg/mL; MHC human red blood cells [6]: >1000 µg/mL
